{"source": "patent US20040266623A1", "about": "“SYNERGISTIC QUINCLORAC HERBICIDAL COMPOSITIONS” (priority 2003, published 2004)", "assay_in_all_cases": "Greenhouse pot test, postemergent spray, visual control rating converted to percent control", "format_in_all_cases": "in vivo", "key": {"[1]": {"system": "crabgrass", "conditions": "for Control (1-9) Crabgrass: scale 1=no control, 9=death of plant", "protocol": "(§1) Pots of crabgrass, dandelion, white clover, and plantain grown in greenhouse soiless growth media were sprayed with a greenhouse pot sprayer at 43.46 gallons of spray solution/acre and allowed to stand in the greenhouse. Visual observation of the effects made by the herbicidal compositions on the plants in the test pots was recorded for control of crabgrass, dandelion, clover and plantain at 24 hours after treatment (HAT), 48 hours after treatment (HAT), 72 hours after treatment (HAT), 7 days after treatment (DAT), 14 days after treatment (DAT) and 21 days after treatment (DAT). A control rating scale of 1 to 9 was used to record the visual observation of the effect of the herbicidal composition on the plants over the time period of the tests. 1=no control, and 9=death of plant, with intervening numbers representing successive degrees of observed effectiveness of the herbicidal composition over time. The 1-9 control rating scale was converted to percent control in the test data charts that follow.\n(§2) The test protocol of S. R. Colby as set out in his article entitled “Calculating Synergistic and Antagonistic Responses of Herbicide Compositions,” received for publication Apr. 11, 1966, Contribution No. 3796 and Scientific Article No. 1271 of the Maryland Agricultural Experiment Station, Department pf Agronomy, University of Maryland was followed to evaluate the synergistic properties of the combination of quinclorac plus a herbicidal protox inhibitor, and a combination of quinclorac, plus a herbicidal protox inhibitor plus a herbicidal auxinic agent as compared with the individual herbicides, using Colby's formulas E=X+Y−XY/100 for a two herbicide combination, where E=the expected percent of inhibition of growth by herbicides, X=the percent inhibition of growth by herbicide A at p lb/A, and Y=the percent inhibition of growth by herbicide B at q lb/A, for a given combination of two herbicides. Colby's formula E=X+Y+Z−(XY+XZ+YZ)/100+XYZ/10,000, was used for the three-way herbicide combination evaluation, where E, X and Y are the same as in the two herbicide formula and Z=the percent inhibition of growth by the third herbicide."}, "[2]": {"system": "plantain", "conditions": "for Control (1-9) Plantain: scale 1=no control, 9=death of plant", "protocol": "as §1, §2"}, "[3]": {"system": "dandelion", "conditions": "for Control (1-9) Dandelion: scale 1=no control, 9=death of plant", "protocol": "as §1, §2"}, "[4]": {"system": "white clover", "conditions": "for Control (1-9) Clover: scale 1=no control, 9=death of plant", "protocol": "as §1, §2"}}}
{"smiles": "Cc1nn(-c2cc(CC(Cl)C(=O)O)c(Cl)cc2F)c(=O)n1C(F)F", "note": "(stereo not drawn) [Carfentrazone @ 0.02 lbs/A]", "values": [{"measurement": "% Control Crabgrass", "setting": "[1]; Test 4, 24 HAT", "result": 11.1, "unit": "%"}, {"measurement": "Control (1-9) Crabgrass", "setting": "[1]; Test 4, 24 HAT", "result": 1}, {"measurement": "% Control Crabgrass", "setting": "[1]; Test 4, 72 HAT", "result": 44.4, "unit": "%"}, {"measurement": "Control (1-9) Crabgrass", "setting": "[1]; Test 4, 72 HAT", "result": 4}, {"measurement": "% Control Plantain", "setting": "[2]; Test 4, 24 HAT", "result": 33.3, "unit": "%"}, {"measurement": "Control (1-9) Plantain", "setting": "[2]; Test 4, 24 HAT", "result": 3}, {"measurement": "% Control Plantain", "setting": "[2]; Test 4, 72 HAT", "result": 66.7, "unit": "%"}, {"measurement": "Control (1-9) Plantain", "setting": "[2]; Test 4, 72 HAT", "result": 6}, {"measurement": "% Control Dandelion", "setting": "[3]; Test 4, 24 HAT", "result": 33.3, "unit": "%"}, {"measurement": "Control (1-9) Dandelion", "setting": "[3]; Test 4, 24 HAT", "result": 3}, {"measurement": "% Control Dandelion", "setting": "[3]; Test 4, 72 HAT", "result": 55.6, "unit": "%"}, {"measurement": "Control (1-9) Dandelion", "setting": "[3]; Test 4, 72 HAT", "result": 5}, {"measurement": "% Control Clover", "setting": "[4]; Test 4, 24 HAT", "result": 44.4, "unit": "%"}, {"measurement": "Control (1-9) Clover", "setting": "[4]; Test 4, 24 HAT", "result": 4}, {"measurement": "% Control Clover", "setting": "[4]; Test 4, 72 HAT", "result": 44.4, "unit": "%"}, {"measurement": "Control (1-9) Clover", "setting": "[4]; Test 4, 72 HAT", "result": 4}]}
{"smiles": "Cc1nn(-c2cc(CC(Cl)C(=O)O)c(Cl)cc2F)c(=O)n1C(F)F", "note": "(stereo not drawn) [Carfentrazone @ 0.01 lbs/A]", "values": [{"measurement": "% Control Crabgrass", "setting": "[1]; Test 4, 24 HAT", "result": 11.1, "unit": "%"}, {"measurement": "Control (1-9) Crabgrass", "setting": "[1]; Test 4, 24 HAT", "result": 1}, {"measurement": "% Control Crabgrass", "setting": "[1]; Test 4, 72 HAT", "result": 22.2, "unit": "%"}, {"measurement": "Control (1-9) Crabgrass", "setting": "[1]; Test 4, 72 HAT", "result": 2}, {"measurement": "% Control Plantain", "setting": "[2]; Test 4, 24 HAT", "result": 33.3, "unit": "%"}, {"measurement": "Control (1-9) Plantain", "setting": "[2]; Test 4, 24 HAT", "result": 3}, {"measurement": "% Control Plantain", "setting": "[2]; Test 4, 72 HAT", "result": 88.9, "unit": "%"}, {"measurement": "Control (1-9) Plantain", "setting": "[2]; Test 4, 72 HAT", "result": 8}, {"measurement": "% Control Dandelion", "setting": "[3]; Test 4, 24 HAT", "result": 22.2, "unit": "%"}, {"measurement": "Control (1-9) Dandelion", "setting": "[3]; Test 4, 24 HAT", "result": 2}, {"measurement": "% Control Dandelion", "setting": "[3]; Test 4, 72 HAT", "result": 33.3, "unit": "%"}, {"measurement": "Control (1-9) Dandelion", "setting": "[3]; Test 4, 72 HAT", "result": 3}, {"measurement": "% Control Clover", "setting": "[4]; Test 4, 24 HAT", "result": 22.2, "unit": "%"}, {"measurement": "Control (1-9) Clover", "setting": "[4]; Test 4, 24 HAT", "result": 2}, {"measurement": "% Control Clover", "setting": "[4]; Test 4, 72 HAT", "result": 44.4, "unit": "%"}, {"measurement": "Control (1-9) Clover", "setting": "[4]; Test 4, 72 HAT", "result": 4}]}
{"smiles": "Cc1nn(-c2cc(NS(C)(=O)=O)c(Cl)cc2Cl)c(=O)n1C(F)F", "note": "[Sulfentrazone @ 0.02 lbs/A]", "values": [{"measurement": "% Control Crabgrass", "setting": "[1]; Test 3, 7 DAT", "result": 44.4, "unit": "%"}, {"measurement": "Control (1-9) Crabgrass", "setting": "[1]; Test 3, 7 DAT", "result": 4}, {"measurement": "% Control Crabgrass", "setting": "[1]; Test 3, 14 DAT", "result": 44.4, "unit": "%"}, {"measurement": "Control (1-9) Crabgrass", "setting": "[1]; Test 3, 14 DAT", "result": 4}, {"measurement": "% Control Crabgrass", "setting": "[1]; Test 3, 21 DAT", "result": 33.3, "unit": "%"}, {"measurement": "Control (1-9) Crabgrass", "setting": "[1]; Test 3, 21 DAT", "result": 3}, {"measurement": "% Control Crabgrass", "setting": "[1]; Test 3, 24 HAT", "result": 11.1, "unit": "%"}, {"measurement": "Control (1-9) Crabgrass", "setting": "[1]; Test 3, 24 HAT", "result": 1}, {"measurement": "% Control Crabgrass", "setting": "[1]; Test 3, 72 HAT", "result": 22.2, "unit": "%"}, {"measurement": "Control (1-9) Crabgrass", "setting": "[1]; Test 3, 72 HAT", "result": 2}, {"measurement": "% Control Plantain", "setting": "[2]; Test 3, 7 DAT", "result": 100.0, "unit": "%"}, {"measurement": "Control (1-9) Plantain", "setting": "[2]; Test 3, 7 DAT", "result": 9}, {"measurement": "% Control Plantain", "setting": "[2]; Test 3, 14 DAT", "result": 100.0, "unit": "%"}, {"measurement": "Control (1-9) Plantain", "setting": "[2]; Test 3, 14 DAT", "result": 9}, {"measurement": "% Control Plantain", "setting": "[2]; Test 3, 21 DAT", "result": 100.0, "unit": "%"}, {"measurement": "Control (1-9) Plantain", "setting": "[2]; Test 3, 21 DAT", "result": 9}, {"measurement": "% Control Plantain", "setting": "[2]; Test 3, 24 HAT", "result": 44.4, "unit": "%"}, {"measurement": "Control (1-9) Plantain", "setting": "[2]; Test 3, 24 HAT", "result": 4}, {"measurement": "% Control Plantain", "setting": "[2]; Test 3, 72 HAT", "result": 88.9, "unit": "%"}, {"measurement": "Control (1-9) Plantain", "setting": "[2]; Test 3, 72 HAT", "result": 8}, {"measurement": "% Control Dandelion", "setting": "[3]; Test 3, 7 DAT", "result": 44.4, "unit": "%"}, {"measurement": "Control (1-9) Dandelion", "setting": "[3]; Test 3, 7 DAT", "result": 4}, {"measurement": "% Control Dandelion", "setting": "[3]; Test 3, 14 DAT", "result": 77.8, "unit": "%"}, {"measurement": "Control (1-9) Dandelion", "setting": "[3]; Test 3, 14 DAT", "result": 7}, {"measurement": "% Control Dandelion", "setting": "[3]; Test 3, 21 DAT", "result": 66.7, "unit": "%"}, {"measurement": "Control (1-9) Dandelion", "setting": "[3]; Test 3, 21 DAT", "result": 6}, {"measurement": "% Control Dandelion", "setting": "[3]; Test 3, 24 HAT", "result": 33.3, "unit": "%"}, {"measurement": "Control (1-9) Dandelion", "setting": "[3]; Test 3, 24 HAT", "result": 3}, {"measurement": "% Control Dandelion", "setting": "[3]; Test 3, 72 HAT", "result": 33.3, "unit": "%"}, {"measurement": "Control (1-9) Dandelion", "setting": "[3]; Test 3, 72 HAT", "result": 3}, {"measurement": "% Control Clover", "setting": "[4]; Test 3, 7 DAT", "result": 33.3, "unit": "%"}, {"measurement": "Control (1-9) Clover", "setting": "[4]; Test 3, 7 DAT", "result": 3}, {"measurement": "% Control Clover", "setting": "[4]; Test 3, 14 DAT", "result": 44.4, "unit": "%"}, {"measurement": "Control (1-9) Clover", "setting": "[4]; Test 3, 14 DAT", "result": 4}, {"measurement": "% Control Clover", "setting": "[4]; Test 3, 21 DAT", "result": 44.4, "unit": "%"}, {"measurement": "Control (1-9) Clover", "setting": "[4]; Test 3, 21 DAT", "result": 4}, {"measurement": "% Control Clover", "setting": "[4]; Test 3, 24 HAT", "result": 33.3, "unit": "%"}, {"measurement": "Control (1-9) Clover", "setting": "[4]; Test 3, 24 HAT", "result": 3}, {"measurement": "% Control Clover", "setting": "[4]; Test 3, 72 HAT", "result": 22.2, "unit": "%"}, {"measurement": "Control (1-9) Clover", "setting": "[4]; Test 3, 72 HAT", "result": 2}]}
